Where only a bound is given, the exact number is not on record here.

The values that follow come from patent US6569845B1, “Neovascularization inhibitor containing dienogest as the active ingredient” (Mochida Pharmaceutical Co., Ltd., priority 1997, dated 2003).

For experiment [1], the system named is chorioallantoic membrane of chick fertilized egg. The experiment is described as follows: CAM (chick embryo chorioallantoic membrane) assay, suppressing action of angiogenesis. It counts as in vivo. Conditions: for Number of choriallantoic membrane with non-vascular region: EV pellet, 2 days at 37° C. As for the experimental part:
Suppressing Action of Angiogenesis According to CAM (Chick Embryo Chorioallantoic Membrane) Assay
According to the method by Hayashi, et al. (Mechanism of Angiogenesis and Diseases, Medical Journal, pp. 255-266, 1996), the suppressing action of angiogenesis was tested by the CAM assay using chorioallantoic membrane of chick fertilized egg. More specifically, a hole was opened through a chick fertilized egg incubated in an incubator at 37° C. for 4 or 5 days, and then, a silicone ring of an outer diameter of 5 mm and an inner diameter of 3 mm was gently placed on the center of the chorioallantoic membrane, followed by placement of an EV (ethylene-vinyl acetate copolymer) pellet containing dienogest or MPA inside the ring. A chorioallantoic membrane on which an EV pellet with no sample was placed was used as a control group. After incubation at 37° C. for 2 days, a fat emulsion preparation was injected into each chorioallantoic membrane, so as to get a clear view of the vascular network on the chorioallantoic membrane, for subsequent observation. Formation of a non-vascular region of a diameter of 3 mm or more on the chorioallantoic membrane was defined as positive suppressing action on angiogenesis.
a: frequency in % of the occurrence of non-vascular region, in parenthesis.
b: Data of suppressing action on angiogenesis is statistically tested by the Fisher's accurate probability test.

For experiment [2], the system named is angiogenesis induced by the S-180 tumor cells. Description: Murine dorsal air sac assay, angiogenesis induced by S-180 tumor cells. Conditions: mouse. It counts as in vivo. On the procedure:
Suppressing Action of Angiogenesis by Murine Dorsal Air Sac Assay According to the method by Iwabana et al. (Cancer Invasion & Metastatic Research Manual, Kinpodo, pp. 172-176, 1995), suppressing action of angiogenesis was tested by the murine dorsal skin method. S-180 tumor cell (murine derived sarcoma) suspended in phosphate buffered saline (PBS) was injected into a Millipore chamber, and the injection opening was closed with a nylon stopper. With an injection syringe, air (10 ml) was injected into the dorsal skin of a mouse anesthetized with Nembutal, to prepare an […], into which the Millipore chamber was transplanted. Animals were preliminarily divided into 4 groups; a Millipore chamber injected with PBS instead of S-180 tumor cells was transplanted into animals of a non-treatment control group (group A), which were then orally given 0.5% CMC carboxymethyl cellulose sodium (0.5% CMC, Wako Pure Chemical Industries, Co.) for 5 days. […] After placing a black ring of the same diameter as the diameter of these chambers at the position of the chambers in place, the number of newly formed vessels of a length of 3 mm or more inside the ring was counted under a stereoscopic microscope. […] Comparison between two groups was done and analyzed by the Wilcoxon's rank sum test; while comparison between multiple groups was done and analyzed by the Dunnett's multiple comparison.

A further experiment has as its system rabbit cornea. To be noted: rabbit cornea assay system (Yamamoto); cited from earlier work.

In the case of `C[C@]12CCC3=C4CCC(=O)C=C4CC[C@H]3[C@@H]1CC[C@@]2(O)CC#N` [Dienogest, 17 α-cyanomethyl-17 β-hydroxy-estra-4, 9(10)-dien-3-one], the “dose that significantly increased the number of chorioallantoic membranes with non-vascular region” value in experiment [1] (compared with the control group, dose-dependent) is listed as at least 0.01 μg/egg. Besides, the “frequency of the occurrence of non-vascular region” value in experiment [1] (dose 0.01 μg/egg) worked out at 13.3%; in experiment [1] (dose 0.1 μg/egg) it was 23.5%; in experiment [1] (dose 1 μg/egg), 48.1%; in experiment [1] (dose 10 μg/egg), 54.2%; in experiment [1] (dose 100 μg/egg), 83.3%; in experiment [1] (dose 1000 μg/egg) it was 91.7%. In addition, the “Number of choriallantoic membrane with non-vascular region” value in experiment [1] (dose 0.01 μg/egg) came out at 2; in experiment [1] (dose 0.1 μg/egg), 4; in experiment [1] (dose 1 μg/egg) it was 13; in experiment [1] (dose 10 μg/egg), 13; in experiment [1] (dose 100 μg/egg), 20; in experiment [1] (dose 1000 μg/egg) it was 22. For the same compound, the “suppression of angiogenesis induced by the S-180 tumor cells (angiogenesis index)” value in experiment [2] (group C, 0.1 mg/kg orally for 5 days) was “weak suppression of angiogenesis”; in experiment [2] (group D, 1 mg/kg orally for 5 days, vs solvent control group (p<0.001)), “significantly suppressed angiogenesis”.
With `CC(=O)O[C@]1(C(C)=O)CC[C@H]2[C@@H]3C[C@H](C)C4=CC(=O)CC[C@]4(C)[C@H]3CC[C@@]21C` [MPA, medroxyprogesterone acetate], the “number of chorioallantoic membranes with non-vascular region compared with the control group” value in experiment [1] (100 μg/egg) is on record as “significantly increased”. In addition, in experiment [1] (dose 100 μg/egg), the “frequency of the occurrence of non-vascular region” value came out at 50.0% and the “Number of choriallantoic membrane with non-vascular region” value is 4.
As to `CC(=O)[C@H]1CC[C@H]2[C@@H]3CCC4=CC(=O)CC[C@]4(C)[C@H]3CC[C@]12C` [progesterone], the “activity on angiogenic suppression” value in the experiment with rabbit cornea is “does not have any activity on angiogenic suppression”.
